Assay results reported in DBAASP.
≈ marks a conversion by molar mass, not a printed value.

How the values were obtained:
Assay in all cases: ≥ marks a high value that may be exact or a test limit, other limits are often not marked, values filed in µg/mL are converted to µM
[1] = tested on: Vibrio vulnificus KCTC 2982
[2] = tested on: Vibrio harveyi ATCC 14126
[3] = tested on: Vibrio ordalii KCCM 41669
[4] = tested on: Escherichia coli JM109
[5] = tested on: Vibrio campbellii KCCM 40684
[6] = tested on: Vibrio alginolyticus KCCM 2928
[7] = tested on: Streptococcus iniae FP5228
[8] = tested on: Edwardsiella tarda
[9] = tested on: Pseudomonas aeruginosa 5167
[10] = tested on: Pseudomonas aeruginosa 1570
[11] = tested on: Bacillus subtilis
[12] = tested on: Escherichia coli W160-37
[13] = tested on: Pseudomonas putida NCIM 2102
[14] = tested on: Staphylococcus aureus 8530
[15] = tested on: Staphylococcus aureus 5118
[16] = tested on: Staphylococcus aureus E4049
[17] = tested on: Staphylococcus aureus ATCC 9144

CC[C@H](C)[C@H](NC(=O)[C@H](CC(C)C)NC(=O)[C@H](CCCN=C(N)N)NC(=O)[C@H](Cc1cnc[nH]1)NC(=O)[C@@H](NC(=O)[C@@H](NC(=O)[C@H](CCCCN)NC(=O)CNC(=O)[C@@H](NC(=O)CNC(=O)[C@@H](NC(=O)[C@H](CC(C)C)NC(=O)CNC(=O)[C@H](CC(N)=O)NC(=O)[C@H](Cc1ccccc1)NC(=O)[C@@H](NC(=O)[C@H](Cc1cnc[nH]1)NC(=O)[C@H](Cc1cnc[nH]1)NC(=O)[C@H](Cc1ccccc1)NC(=O)[C@@H](N)Cc1ccccc1)[C@@H](C)CC)C(C)C)C(C)C)[C@@H](C)O)[C@@H](C)CC)C(=O)O [FFHHIFNGLVGVGKTIHRLI]
MIC [1]: 2.72 µM (≈ 6.28 µg/mL) | MIC [2]: 0.9 µM (≈ 2.08 µg/mL) | MIC [3]: ≥ 1000 µM | MIC [4]: 2.72 µM (≈ 6.28 µg/mL) | MIC [5]: 0.9 µM (≈ 2.08 µg/mL) | MIC [6]: 0.9 µM (≈ 2.08 µg/mL) | MIC [7]: 1.9 µM (≈ 4.38 µg/mL) | MIC [8]: 11 µM (≈ 25.4 µg/mL)

CC(C)C[C@H](NC(=O)[C@H](CC(C)C)NC(=O)[C@H](CCCCN)NC(=O)[C@H](CCCCN)NC(=O)[C@H](CC(C)C)NC(=O)[C@H](C)NC(=O)[C@H](CCCCN)NC(=O)[C@H](CC(C)C)NC(=O)[C@@H](N)Cc1ccccc1)C(N)=O [FLKALKKLL]
MIC [9]: ≥ 119 µM | MIC [10]: 10.5 µM (≈ 11.3 µg/mL)

CC[C@H](C)[C@H](NC(=O)[C@H](CC(C)C)NC(=O)[C@H](CCCCN)NC(=O)[C@H](CCCCN)NC(=O)[C@H](CC(C)C)NC(=O)CN)C(=O)N[C@@H](CO)C(=O)N[C@@H](Cc1c[nH]c2ccccc12)C(=O)N[C@H](C(=O)N[C@@H](CCCCN)C(=O)N[C@@H](CCCN=C(N)N)C(=O)N[C@@H](C)C(=O)N[C@@H](C)C(=O)N[C@@H](CCC(N)=O)C(=O)N[C@@H](CCC(N)=O)C(=O)NCC(N)=O)[C@@H](C)CC [GLKKLISWIKRAAQQG]
MIC [11]: 1.57 µM (≈ 2.83 µg/mL) | MIC [12]: 6.81 µM (≈ 12.2 µg/mL) | MIC [13]: 30.5 µM (≈ 54.7 µg/mL) | MIC [14]: 3.93 µM (≈ 7.07 µg/mL)

CSCC[C@H](NC(=O)[C@@H](NC(=O)[C@H](Cc1ccccc1)NC(=O)[C@H](CC(C)C)NC(=O)[C@H](CC(C)C)NC(=O)[C@@H](NC(=O)[C@H](C)NC(=O)[C@@H](N)CC(C)C)[C@@H](C)O)[C@@H](C)O)C(=O)N[C@@H](CS)C(=O)N[C@@H](CC(C)C)C(=O)N[C@@H](CC(N)=O)C(=O)N[C@@H](Cc1ccccc1)C(=O)N[C@@H](CS)C(=O)NCC(=O)N[C@H](C(=O)N[C@@H](CC(C)C)C(=O)N[C@@H](C)C(=O)NCC(=O)N[C@@H](CC(=O)O)C(=O)N[C@@H](CC(=O)O)C(=O)O)C(C)C [LATLLFTMCLNFCGVLAGDD]
MIC [15]: 3.78 µM (≈ 8 µg/mL) | MIC [16]: 15.6 µM (≈ 33 µg/mL) | MIC [17]: ≥ 125 µM
